Assay results reported in ChEMBL document CHEMBL1130587, “General synthesis of 3-substituted alkenyl GABA as potential anticonvulsants” (Bioorg Med Chem Lett, 1998).
Calls of active or inactive are those of the source. No cut-off for these calls is given here.

Experiment: Compound was evaluated for the […] glutamate decarboxylase at 2.5 mM dose; No significant activation

| Compound | Activity |
| --- | --- |
| C=CC(CN)CC(=O)O (configuration not stated) | inactive |
| C/C=C\C(CN)CC(=O)O (configuration not stated) | inactive |
| CC(C)/C=C\C(CN)CC(=O)O (configuration not stated) | inactive |
| C/C=C(\C)C(CN)CC(=O)O (configuration not stated) | inactive |
| CC(C)=CC(CN)CC(=O)O (configuration not stated) | inactive |
| CCC/C=C\C(CN)CC(=O)O (configuration not stated) | inactive |
| C/C=C/C(CN)CC(=O)O (configuration not stated) | inactive |
| CC/C=C\C(CN)CC(=O)O (configuration not stated) | inactive |
| CC/C=C/C(CN)CC(=O)O (configuration not stated) | inactive |

Experiment: Compound was evaluated for its ability to increase the […] glutamate decarboxylase at 2.5 mM dose
Set-up: scale not given: the % may be the effect or the level left

| Compound | Activity |
| --- | --- |
| CC(C)CC(CN)CC(=O)O (configuration not stated) | 50% |

Experiment: Half life at a concentration 1 mM.
Type: ADME

| Compound | half-life at 1000 µM |
| --- | --- |
| C=CC(CN)CC(=O)O (configuration not stated) | 39 min |
| C=CC(N)CCC(=O)O (configuration not stated) [VIGABATRIN] | 0.3 min |
